Literature values as cited in US20050053655A1, “Rapid disintegrating tablets (RDTs) for pharmaceutical use and method for preparing the same” (Pharmaceutical Industry Technology and Development Center, priority 2003, published 2005).

## NC(N)=Nc1nc(CSCCC(N)=NS(N)(=O)=O)cs1 [Famotidine, famotidine]
  solubility in water: very slightly soluble in water
